12 compounds from patent US10093658B2, “Bifunctional compounds and use for reducing uric acid levels” (Acquist LLC, priority 2015, dated 2018) can be followed below.

For orientation: IC50 means the point on the concentration scale where inhibition reaches its midpoint.

Assay [1] has as its target Xanthine oxidase (Homo sapiens (Human), UniProt P47989). Kind of assay: Fluorescence-based xanthine oxidase activity assay. Format: biochemical. As to conditions: for XO inhibition (in words): qualitative statement.
For assay [2], the target named is URAT1 (SLC22A12) (Homo sapiens (Human), UniProt Q96S37). Nature of the assay: URAT1 (SLC22A12) cellular uptake assay, 3H-orotate transport in stably transfected URAT-1/CHO cells. As to conditions: for URAT1 inhibition (in words): qualitative statement.
The mark [3] stands for this setting: fluorescence-based assay, triplicate, 10 concentrations, read-out: Xanthine Oxidase IC50.
Where [4] appears, read: read-out: URAT1 IC50, URAT-1/CHO cells, 3H-orotate uptake, URAT1 assay as described herein.

Where “and” joins values, the source holds several entries; their conditions need not be identical. Equal values may be shown once. Read-outs that look alike come from different tables or passages of the source. Bounds are passed on as bounds.

URAT1 (SLC22A12), sequence (Q96S37 whole entry): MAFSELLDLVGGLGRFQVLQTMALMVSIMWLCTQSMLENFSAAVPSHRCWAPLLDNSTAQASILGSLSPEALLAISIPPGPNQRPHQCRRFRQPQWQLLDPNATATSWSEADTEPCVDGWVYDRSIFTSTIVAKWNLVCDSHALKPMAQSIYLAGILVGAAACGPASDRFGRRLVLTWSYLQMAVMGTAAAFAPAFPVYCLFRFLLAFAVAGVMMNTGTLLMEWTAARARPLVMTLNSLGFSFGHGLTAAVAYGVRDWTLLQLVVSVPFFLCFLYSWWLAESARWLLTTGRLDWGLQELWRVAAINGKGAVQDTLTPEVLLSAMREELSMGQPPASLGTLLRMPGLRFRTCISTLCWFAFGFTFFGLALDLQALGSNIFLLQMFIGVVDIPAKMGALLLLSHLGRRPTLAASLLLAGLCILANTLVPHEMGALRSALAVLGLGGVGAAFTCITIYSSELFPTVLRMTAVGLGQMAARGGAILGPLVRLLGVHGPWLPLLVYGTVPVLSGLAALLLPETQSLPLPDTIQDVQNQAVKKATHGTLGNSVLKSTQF
Xanthine oxidase, sequence (P47989 whole entry, species assumed): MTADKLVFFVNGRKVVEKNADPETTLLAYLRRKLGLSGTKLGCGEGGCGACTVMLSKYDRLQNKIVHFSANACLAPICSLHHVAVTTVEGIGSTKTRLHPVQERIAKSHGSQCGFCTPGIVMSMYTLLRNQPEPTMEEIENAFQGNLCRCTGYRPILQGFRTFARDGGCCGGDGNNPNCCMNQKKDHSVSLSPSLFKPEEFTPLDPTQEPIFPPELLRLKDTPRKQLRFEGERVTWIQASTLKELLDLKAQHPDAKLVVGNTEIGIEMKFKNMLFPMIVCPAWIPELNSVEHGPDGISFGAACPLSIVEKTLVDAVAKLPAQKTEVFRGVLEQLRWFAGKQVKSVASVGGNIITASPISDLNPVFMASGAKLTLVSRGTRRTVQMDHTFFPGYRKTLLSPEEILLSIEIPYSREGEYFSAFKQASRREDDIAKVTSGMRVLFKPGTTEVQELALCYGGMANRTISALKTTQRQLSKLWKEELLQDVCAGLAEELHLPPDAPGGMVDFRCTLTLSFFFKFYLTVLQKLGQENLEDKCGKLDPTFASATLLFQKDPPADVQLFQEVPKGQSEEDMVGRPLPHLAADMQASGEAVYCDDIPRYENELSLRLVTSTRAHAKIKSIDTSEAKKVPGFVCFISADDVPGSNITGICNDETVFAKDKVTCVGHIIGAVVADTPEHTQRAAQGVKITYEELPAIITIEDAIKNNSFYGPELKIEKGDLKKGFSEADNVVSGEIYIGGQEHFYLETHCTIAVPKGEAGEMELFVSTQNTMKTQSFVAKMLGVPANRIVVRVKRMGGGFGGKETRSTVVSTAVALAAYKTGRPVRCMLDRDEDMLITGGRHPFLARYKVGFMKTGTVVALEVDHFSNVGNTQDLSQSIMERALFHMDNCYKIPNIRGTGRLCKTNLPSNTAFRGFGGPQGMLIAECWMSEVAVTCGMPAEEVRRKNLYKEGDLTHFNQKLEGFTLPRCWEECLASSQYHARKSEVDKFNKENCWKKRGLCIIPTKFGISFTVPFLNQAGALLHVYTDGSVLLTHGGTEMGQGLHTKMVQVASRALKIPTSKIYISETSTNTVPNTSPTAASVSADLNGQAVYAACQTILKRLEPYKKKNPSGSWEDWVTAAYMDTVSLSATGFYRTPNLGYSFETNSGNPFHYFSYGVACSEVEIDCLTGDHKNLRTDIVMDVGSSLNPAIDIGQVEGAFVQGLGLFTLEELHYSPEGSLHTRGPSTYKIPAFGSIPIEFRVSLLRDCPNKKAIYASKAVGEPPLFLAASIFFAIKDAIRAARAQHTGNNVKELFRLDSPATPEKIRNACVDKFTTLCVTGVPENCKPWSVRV

As to `O=C(Nc1ccc2n[nH]nc2c1)c1c(O)[nH]c(=O)[nH]c1=O` [Formula (IIIa), N-(1H-benzo[d][1,2,3]triazol-6-yl)-6-hydroxy-2,4-dioxo-1,2,3,4-tetrahydropyrimidine-5-carboxamide], the IC50 amounted to 8.93 µM in assay [1] (setting [3]) and 1.34 µM in assay [2] (setting [4]).

Regarding `O=C(Nc1ccc(-c2nnn[nH]2)cc1)c1c(O)[nH]c(=O)[nH]c1=O` [Formula (IIa), N-(4-(2H-tetrazol-5-yl)phenyl)-6-hydroxy-2,4-dioxo-1,2,3,4-tetrahydropyrimidine-5-carboxamide], the IC50 in assay [1] (setting [3]) was 0.68 µM; in assay [2] (setting [4]) it was 9.54 µM.

Take `O=C(Nc1ccc(-c2nnn[nH]2)cc1)c1c(O)[nH]c(=S)[nH]c1=O` [Formula (IIb), N-(4-(2H-tetrazol-5-yl)phenyl)-6-hydroxy-4-oxo-2-thioxo-1,2,3,4-tetrahydropyrimidine-5-carboxamide]: the concentration for half-maximal inhibition (IC50) in assay [1] (setting [3]) was 0.39 µM; in assay [2] (setting [4]), 147 µM.

As for `O=C(Nc1ccc(-n2cnnn2)cc1)c1c(O)[nH]c(=O)[nH]c1=O` [Formula (IIc), N-(4-(1H-tetrazol-1-yl)phenyl)-6-hydroxy-2,4-dioxo-1,2,3,4-tetrahydropyrimidine-5-carboxamide], the half-inhibitory concentration (IC50) in assay [1] (setting [3]) was 20.7 µM.

On to `O=C(Nc1ccc(-c2cnn[nH]2)cc1)c1c(O)[nH]c(=O)[nH]c1=O` [Formula (IIe), N-(4-(1H-1,2,3-triazol-5-yl)phenyl)-6-hydroxy-2,4-dioxo-1,2,3,4-tetrahydropyrimidine-5-carboxamide], for which the IC50 in assay [1] (setting [3]) was 1.24 µM and 1.14 µM; in assay [2] (setting [4]), 0.69 µM.

Take `O=C(Nc1ccc(-c2cnn[nH]2)cc1)c1c(O)[nH]c(=S)[nH]c1=O` [Formula (IIf), N-(4-(1H-1,2,3-triazol-5-yl)phenyl)-6-hydroxy-4-oxo-2-thioxo-1,2,3,4-tetrahydropyrimidine-5-carboxamide]: the IC50 in assay [1] (setting [3]) was 0.06 µM and 0.09 µM; in assay [2] (setting [4]), 11.1 µM. Moreover, the “XO inhibition (in words)” value in assay [1] is given as “comparable to febuxostat”.

Consider `NS(=O)(=O)c1ccc(NC(=O)c2c(O)[nH]c(=O)[nH]c2=O)cc1` [Formula (Ia), 6-hydroxy-2,4-dioxo-N-(4-sulfamoylphenyl)-1,2,3,4-tetrahydropyrimidine-5-carboxamide], for which the IC50 in assay [1] (setting [3]) was at least 300 µM.

In the case of `CS(=O)(=O)Nc1ccc(NC(=O)c2c(O)[nH]c(=O)[nH]c2=O)cc1` [Formula (Ib), 6-hydroxy-N-(4-(methylsulfonamido)phenyl)-2,4-dioxo-1,2,3,4-tetrahydropyrimidine-5-carboxamide], the IC50 in assay [1] (setting [3]) was 87 µM.

Turning to `O=C(Nc1ccc(NS(=O)(=O)C(F)(F)F)cc1)c1c(O)[nH]c(=O)[nH]c1=O` [Formula (Ic), 6-hydroxy-2,4-dioxo-N-(4-(trifluoromethylsulfonamido)phenyl)-1,2,3,4-tetrahydropyrimidine-5-carboxamide], the IC50 in assay [1] (setting [3]) turned out to be 201 µM.

As to `O=C(Nc1ccc(O)c(CO)c1)c1c(O)[nH]c(=O)[nH]c1=O` [Formula (Id), 6-hydroxy-N-(4-hydroxy-3-(hydroxymethyl)phenyl)-2,4-dioxo-1,2,3,4-tetrahydropyrimidine-5-carboxamide], the IC50 in assay [1] was below 10 µM; in assay [1] (setting [3]), 3.66 µM; in assay [2], below 10 µM; in assay [2] (setting [4]), 7.26 µM.

In the case of `O=C(Nc1ccc(-c2noc(=O)[nH]2)cc1)c1c(O)[nH]c(=O)[nH]c1=O` [Formula (If), 6-hydroxy-2,4-dioxo-N-(4-(5-oxo-4,5-dihydro-1,2,4-oxadiazol-3-yl)phenyl)-1,2,3,4-tetrahydropyrimidine-5-carboxamide], the half-inhibitory concentration (IC50) in assay [1] (setting [3]) is 4.81 µM and 7.74 µM; in assay [2] (setting [4]), 7.6 µM. Further, the “XO inhibition (in words)” value in assay [1] is “active against both targets”. For the same compound, the “URAT1 inhibition (in words)” value in assay [2] was “active against both targets”.

Regarding `O=C(Nc1ccc(-c2noc(=O)[nH]2)cc1)c1c(O)[nH]c(=S)[nH]c1=O` [Formula (Ig), 6-Hydroxy-4-oxo-N-(4-(5-oxo-4,5-dihydro-1,2,4-oxadiazol-3-yl)phenyl)-2-thioxo-1,2,3,4-tetrahydropyrimidine-5-carboxamide], the IC50 in assay [1] (setting [3]) is 3.29 µM and 8.01 µM; in assay [2] (setting [4]) it was above 150 µM. Besides, the “XO inhibition (in words)” value in assay [1] is “acceptable XO inhibitor”. Besides, the “URAT1 inhibition (in words)” value in assay [2] is on record as “poor URAT1 inhibitor”.
